{"source": "patent US20090098049A1", "about": "“Targeting transducible molecules to specific cell types” (The Regents of the University of California, priority 2004, published 2009)", "key": {"CXCR4 receptor": {"molecular_target": "T1, CXCR4 receptor (Homo sapiens, UniProt P61073)", "T1 construct": "CXCR4 expressing Namalwa cells were washed 3 times with PBS/0.5% BSA and incubated on ice; endogenous in cells; host or cells: Namalwa B cells (human Burkitt's lymphoma, ATCC)", "T1 sequence (P61073 whole entry, the tested form may be a part)": "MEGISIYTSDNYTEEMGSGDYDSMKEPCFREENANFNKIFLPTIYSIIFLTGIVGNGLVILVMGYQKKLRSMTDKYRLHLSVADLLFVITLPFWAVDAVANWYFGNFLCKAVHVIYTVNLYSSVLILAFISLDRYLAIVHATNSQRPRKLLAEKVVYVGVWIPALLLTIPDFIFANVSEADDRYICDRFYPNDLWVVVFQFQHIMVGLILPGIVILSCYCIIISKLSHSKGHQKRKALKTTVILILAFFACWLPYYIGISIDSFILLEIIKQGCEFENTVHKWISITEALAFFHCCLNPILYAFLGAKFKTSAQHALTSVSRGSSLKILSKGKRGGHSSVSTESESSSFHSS", "assay": "CXCR4 binding assay (inhibition of 12G5-PE anti-CXCR4 antibody binding, flow cytometry)", "conditions": "linked DV3 and TAT domains versus single domains, FIG. 1B", "description": "(a) Sequences of peptides used in some embodiments. All peptides were synthesized using D-isomer residues, except for the TAT-RxL peptides. (b) Human Namalwa lymphoma cells that overexpress CXCR4 receptor were incubated with increasing concentrations of peptide, followed by fluorescent PE-conjugated anti-CXCR4 monoclonal antibody incubation, then analyzed for antibody binding to CXCR4 receptor (mean fluorescence) by flow cytometry. Graph plots relative fluorescence of cells with respect to cells treated with antibody only. Data represents the mean and standard error from three independent experiments.\nCXCR4 binding assay. CXCR4 expressing Namalwa cells were washed 3 times with PBS/0.5% BSA and incubated on ice with phycoerythrin (PE)-labeled anti-CXCR4 monoclonal antibody (12G5-PE, R&D Systems, WI) and peptide. PE-labeled isotype matched antibody was used to control for non-specific cell surface binding. […]\nDV3 Enhances the Affinity of TAT Peptides for CXCR4 Expressing Cells. […] Human Namalwa Burkitt's lymphoma cells overexpressing the CXCR4 receptor were treated with various peptides to block the CXCR4 receptor, then incubated with phycoerythrin (PE) conjugated anti-CXCR4 antibody and analyzed by flow cytometry."}, "[1]": {"tested_on": "CXCR4-expressing Namalwa lymphoma cells", "assay": "Namalwa lymphoma cell killing (trypan blue exclusion; apoptosis by DNA content)", "format": "cell-based, Human", "conditions": "for cell viability / cell number (in words): 30 μM peptide, single peptides or domains in trans, FIG. 3A", "description": "(a) Namalwa lymphoma cells were treated with 40 μM TATp53C′ or DV3-TATp53C′ peptide for 48 h. Cell viability was assessed by trypan blue exclusion. Data represents the mean and standard error from three independent experiments. […] Cells were treated with 5 μM peptide for 24 hours and analyzed for DNA content by flow cytometry. […] Cells were treated with indicated concentrations of cdk2 antagonists TAT-RxL or DV3-TAT-RxL peptides for 48 h. Cell viability was assessed by trypan blue exclusion. Data represents the mean and standard error from three independent experiments. (e) Namalwa lymphoma (CXCR4+) cells were treated with DV3-TATp53C′, TATp53C′ or DV3-TATp53MUT peptides for 24 hours. Apoptosis was determined by <2N DNA content as measured by flow cytometry and DNA staining.\nNamalwa lymphoma cells were treated with 30 μM peptide for 48 h. Cell viability was assessed by trypan blue exclusion. Data represents the mean and standard error from three independent experiments. […] Cells were treated with 30 μM DV3-TATp53C′ or parental TATp53C′ peptide for 48 h in the presence or absence of a 200 μM excess of DV3 peptide. Cell viability was assessed by trypan blue exclusion. Data represents the mean and standard error from three independent experiments.\nCell Culture and Flow Cytometry. TA3/St, H1299 and 293T cells were maintained in DMEM plus 10% fetal bovine serum (FBS) and penicillin/streptomycin (P/S). Namalwa B cells (ATCC) were maintained in RPMI plus 10% FBS, P/S. All cells were maintained at 37° C. in 5% CO2. Short-term cell viability was assessed by counting Trypan blue excluding cells on a hemocytometer. For cell cycle analysis, peptide treated cells were analyzed by FACS with 10 μg/ml propidium iodide in 0.5% NP-40. DNA profiles were analyzed using a FACScan and CellQuest software (Becton Dickinson, San Jose, Calif.)."}, "[2]": {"molecular_target": "CXCR4 receptor on human Namalwa Burkitt's lymphoma cells (human) (UniProt P61073)", "sequence (P61073 whole entry)": "as the sequence (P61073 whole entry, the tested form may be a part) above", "assay": "flow cytometry on Namalwa cells; inhibition of 12G5-PE binding to CXCR4"}, "[3]": {"tested_on": "TA3/St mammary carcinoma cells", "assay": "Peptide treatment of CXCR4 non-expressing TA3/St cells (cell cycle by flow cytometry)", "format": "cell-based", "conditions": "5 μM peptide, 24 hours, DNA content by flow cytometry, FIG. 2B", "description": "(§1) (a) Namalwa lymphoma cells were treated with 40 μM TATp53C′ or DV3-TATp53C′ peptide for 48 h. Cell viability was assessed by trypan blue exclusion. Data represents the mean and standard error from three independent experiments. (b) DV3-TATp53C′ and TATp53C′ peptides induce similar level of p53-dependent G1 cell cycle arrest in CXCR4 non-expressing TA3/St mammary carcinoma cells. Cells were treated with 5 μM peptide for 24 hours and analyzed for DNA content by flow cytometry. (c) DV3-TATp53C′, TATp53C′ and control DV3 peptide (30 μM) have no effect on CXCR4 non-expressing, p53-deficient H1299 lung adenocarcinoma cells. […] Cells were treated with indicated concentrations of cdk2 antagonists TAT-RxL or DV3-TAT-RxL peptides for 48 h. Cell viability was assessed by trypan blue exclusion. Data represents the mean and standard error from three independent experiments. […] Apoptosis was determined by <2N DNA content as measured by flow cytometry and DNA staining.\n(§2) Cell Culture and Flow Cytometry. […] Short-term cell viability was assessed by counting Trypan blue excluding cells on a hemocytometer. For cell cycle analysis, peptide treated cells were analyzed by FACS with 10 μg/ml propidium iodide in 0.5% NP-40. DNA profiles were analyzed using a FACScan and CellQuest software (Becton Dickinson, San Jose, Calif.)."}, "[4]": {"tested_on": "H1299 lung adenocarcinoma cells", "assay": "Peptide treatment of p53-deficient H1299 cells", "format": "cell-based, human", "conditions": "30 μM peptide, FIG. 2C", "description": "as §1, §2"}, "Namalwa lymphoma cells": {"tested_on": "Namalwa lymphoma cells", "assay": "Mouse model of metastatic peritoneal lymphoma (survival)", "format": "in vivo", "conditions": "SCID mice, Namalwa cells i.p., 180 nmol peptide once a day for 12 days, FIG. 5", "description": "FIG. 5. Targeted DV3-TATp53C′ peptide has enhanced ability to treat mouse model of aggressive, metastatic peritoneal lymphoma. Namalwa lymphoma cells were intraperitoneally injected into SCID mice and allowed to proliferate for 48 hours. Mice were then injected once a day for 12 days with vehicle control (n=10), or 180 nmol DV3-TATp53C′ peptide (n=11), non-targeted, parental TATp53C′ peptide (n=5), or control DV3-only peptide (n=5)."}}, "note": "Non-standard residues stand in square brackets, D forms with d. No end group written: not given here."}
{"molecule": "CC(C)C[C@@H](N)C(=O)NCC(=O)N[C@H](C)C(=O)N[C@H](CO)C(=O)N[C@H](Cc1c[nH]c2ccccc12)C(=O)N[C@H](Cc1c[nH]cn1)C(=O)N[C@H](CCCNC(=N)N)C(=O)N1CCC[C@@H]1C(=O)N[C@H](CC(=O)O)C(=O)N[C@H](CCCCN)C(=O)NCC(=O)N[C@H](CCCNC(=N)N)C(=O)N[C@H](CCCNC(=N)N)C(=O)N[C@H](CCCNC(=N)N)C(=O)N[C@H](CCC(N)=O)C(=O)N[C@H](CCCNC(=N)N)C(=O)N[C@H](CCCNC(=N)N)C(=O)N[C@H](CCCCN)C(=O)N[C@H](CCCCN)C(=O)N[C@H](CCCNC(=N)N)C(=O)NCC(=O)O", "note": "[DV3-TAT]", "values": [{"measurement": "increased affinity for the CXCR4 receptor", "setting": "CXCR4 receptor", "value": "~100", "unit": "fold"}, {"measurement": "cell viability / cell number (in words)", "setting": "[1]; Namalwa cells, 48 h", "value": "minimal effects on cell number"}]}
{"molecule": "DV3-TATp53C′ peptide", "values": [{"measurement": "IC50", "setting": "[2]", "value": "< 10", "unit": "nM"}]}
{"molecule": "DV3-TAT peptide", "values": [{"measurement": "IC50", "setting": "[2]", "value": "< 10", "unit": "nM"}, {"measurement": "fold increased affinity (against DV3 or TAT peptide alone)", "setting": "[2]", "value": 100, "unit": "fold"}]}
{"molecule": "[dL]G[dA][dS][dW][dH][dR][dP][dD][dK]G[dR][dR][dR][dQ][dR][dR][dK][dK][dR]G[dK][dK][dH][dR][dS][dT][dS][dQ]G[dK][dK][dS][dK][dL][dH][dS][dS][dH][dA][dR][dS]G [DV3-TATp53C′]", "values": [{"measurement": "reduction of cell number", "setting": "[1]; 40 μM peptide, 48 h, trypan blue exclusion, FIG. 2A", "value": "> 80", "unit": "%"}, {"measurement": "cell killing in presence of excess competing DV3 peptide", "setting": "[1]; Namalwa cells, 30 μM peptide co-administered with 200 μM DV3 peptide, 48 h, FIG. 3B", "value": "reduced the potency of DV3-TATp53C′ peptide to levels similar to that of parental TATp53C′ peptide"}, {"measurement": "cell viability / cell number (in words)", "setting": "[1]; Namalwa cells, 48 h", "value": "decreased viability to a significantly greater extent than treatment with parental TAT-p53C′ peptide"}, {"measurement": "cell number / cell killing (in words)", "setting": "[1]; Namalwa cells, p53 peptides, FIG. 2A", "value": "enhanced cell killing"}, {"measurement": "G1 cell cycle arrest", "setting": "[3]", "value": "induced a G1 arrest that was indistinguishable from treatment with parental TATp53C′ peptide"}, {"measurement": "effect on p53-deficient H1299 cells", "setting": "[4]", "value": "little to no effect"}, {"measurement": "median survival", "setting": "Namalwa lymphoma cells", "value": 41, "unit": "days"}]}
{"molecule": "[dL]G[dA][dS][dW][dH][dR][dP][dD][dK]", "note": "[DV3 peptide (CXCR4 receptor ligand)]", "values": [{"measurement": "IC50", "setting": "[2]", "value": 1000, "unit": "nM"}]}
